Data taken from ChEMBL document CHEMBL1145861, “Selective protein tyrosine phosphatase 1B inhibitors: targeting the second phosphotyrosine binding site with non-carboxylic acid-containing ligands” (J Med Chem, 2003).

Experiments:
[1] = target: T1, Tyrosine-protein phosphatase non-receptor type 1 (Homo sapiens, UniProt P18031); experiment: Protein-tyrosine phosphatase 1B (PTP 1B) site 2 Ligands were identified using [13C]-labeled protein and their Dissociation Constants were determined
T1 sequence (P18031 whole entry): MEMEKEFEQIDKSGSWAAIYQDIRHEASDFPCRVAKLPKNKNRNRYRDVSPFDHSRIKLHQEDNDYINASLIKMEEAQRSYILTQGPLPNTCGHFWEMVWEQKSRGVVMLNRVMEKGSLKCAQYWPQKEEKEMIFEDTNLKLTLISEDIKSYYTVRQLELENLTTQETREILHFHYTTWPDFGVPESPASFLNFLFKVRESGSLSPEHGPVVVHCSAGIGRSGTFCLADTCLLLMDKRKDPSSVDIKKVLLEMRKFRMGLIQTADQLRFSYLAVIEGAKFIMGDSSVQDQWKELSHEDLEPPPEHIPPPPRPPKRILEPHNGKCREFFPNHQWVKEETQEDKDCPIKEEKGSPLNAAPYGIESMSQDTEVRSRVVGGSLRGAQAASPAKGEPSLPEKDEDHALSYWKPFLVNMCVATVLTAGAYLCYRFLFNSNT

[2] = target: Tyrosine-protein phosphatase non-receptor type 2 (Homo sapiens, UniProt P17706); experiment: Inhibitory constant against T cell protein tyrosine phosphatase; type: single protein
Chain of Tyrosine-protein phosphatase non-receptor type 2 (P17706 whole entry, looked up): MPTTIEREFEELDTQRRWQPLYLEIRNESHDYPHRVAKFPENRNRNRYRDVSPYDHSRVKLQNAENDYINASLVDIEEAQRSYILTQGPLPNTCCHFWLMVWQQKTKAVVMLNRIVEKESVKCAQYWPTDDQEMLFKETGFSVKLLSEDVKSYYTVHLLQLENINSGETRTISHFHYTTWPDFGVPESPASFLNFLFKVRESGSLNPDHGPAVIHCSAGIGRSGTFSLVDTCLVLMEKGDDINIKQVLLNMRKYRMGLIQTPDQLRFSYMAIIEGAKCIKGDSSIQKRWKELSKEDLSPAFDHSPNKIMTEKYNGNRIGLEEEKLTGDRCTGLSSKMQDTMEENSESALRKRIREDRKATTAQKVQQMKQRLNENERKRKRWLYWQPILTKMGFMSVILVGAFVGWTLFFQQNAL

[3] = target: T1, Tyrosine-protein phosphatase non-receptor type 1; experiment: Inhibitory activity against Protein-tyrosine phosphatase 1B (PTP 1B) was determined
[4] = target: T2, Receptor-type tyrosine-protein phosphatase C (Homo sapiens, UniProt P08575); experiment: Inhibitory activity against CD45 tyrosine phosphatase was determined
T2 sequence (P08575 whole entry): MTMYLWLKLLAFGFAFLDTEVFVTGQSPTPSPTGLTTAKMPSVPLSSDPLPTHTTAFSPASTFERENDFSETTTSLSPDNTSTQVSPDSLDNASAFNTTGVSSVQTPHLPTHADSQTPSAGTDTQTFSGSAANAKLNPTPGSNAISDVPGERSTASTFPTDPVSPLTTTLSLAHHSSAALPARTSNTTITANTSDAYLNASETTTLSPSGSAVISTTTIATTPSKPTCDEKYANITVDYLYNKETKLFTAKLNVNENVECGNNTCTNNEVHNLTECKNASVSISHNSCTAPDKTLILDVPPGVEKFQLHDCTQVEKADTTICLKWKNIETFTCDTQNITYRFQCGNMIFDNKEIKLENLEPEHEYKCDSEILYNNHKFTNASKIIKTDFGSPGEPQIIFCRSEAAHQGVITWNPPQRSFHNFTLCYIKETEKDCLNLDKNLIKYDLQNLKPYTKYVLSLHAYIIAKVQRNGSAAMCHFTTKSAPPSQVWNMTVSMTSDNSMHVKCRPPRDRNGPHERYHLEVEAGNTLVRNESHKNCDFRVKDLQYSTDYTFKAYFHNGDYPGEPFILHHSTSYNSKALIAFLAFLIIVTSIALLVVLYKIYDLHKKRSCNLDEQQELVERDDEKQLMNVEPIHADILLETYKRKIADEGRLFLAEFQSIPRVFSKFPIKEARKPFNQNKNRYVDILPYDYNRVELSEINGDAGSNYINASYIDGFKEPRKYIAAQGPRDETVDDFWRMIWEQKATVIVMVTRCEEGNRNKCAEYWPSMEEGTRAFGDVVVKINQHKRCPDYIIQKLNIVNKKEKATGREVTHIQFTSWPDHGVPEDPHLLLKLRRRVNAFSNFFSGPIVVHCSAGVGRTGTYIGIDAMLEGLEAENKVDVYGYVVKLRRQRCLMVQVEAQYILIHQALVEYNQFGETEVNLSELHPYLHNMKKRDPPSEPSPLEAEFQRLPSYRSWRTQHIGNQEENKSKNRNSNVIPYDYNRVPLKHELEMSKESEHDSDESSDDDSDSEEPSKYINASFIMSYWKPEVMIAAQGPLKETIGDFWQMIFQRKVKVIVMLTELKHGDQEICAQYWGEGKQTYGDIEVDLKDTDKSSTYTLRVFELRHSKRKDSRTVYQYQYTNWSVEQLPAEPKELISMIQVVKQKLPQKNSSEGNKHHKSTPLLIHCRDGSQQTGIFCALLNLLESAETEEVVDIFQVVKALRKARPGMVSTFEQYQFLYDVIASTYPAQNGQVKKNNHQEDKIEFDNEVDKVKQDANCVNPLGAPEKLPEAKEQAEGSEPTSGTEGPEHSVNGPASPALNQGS

[5] = target: Protein phosphatase 3 catalytic subunit alpha (Homo sapiens, UniProt Q08209); experiment: Inhibitory activity against (calcineurin) was determined
[6] = target: T3, M-phase inducer phosphatase 3 (Homo sapiens, UniProt P30307); experiment: Inhibitory activity against cell division cycle 25 degree C (Cdc25 C) was determined
T3 sequence (P30307 whole entry): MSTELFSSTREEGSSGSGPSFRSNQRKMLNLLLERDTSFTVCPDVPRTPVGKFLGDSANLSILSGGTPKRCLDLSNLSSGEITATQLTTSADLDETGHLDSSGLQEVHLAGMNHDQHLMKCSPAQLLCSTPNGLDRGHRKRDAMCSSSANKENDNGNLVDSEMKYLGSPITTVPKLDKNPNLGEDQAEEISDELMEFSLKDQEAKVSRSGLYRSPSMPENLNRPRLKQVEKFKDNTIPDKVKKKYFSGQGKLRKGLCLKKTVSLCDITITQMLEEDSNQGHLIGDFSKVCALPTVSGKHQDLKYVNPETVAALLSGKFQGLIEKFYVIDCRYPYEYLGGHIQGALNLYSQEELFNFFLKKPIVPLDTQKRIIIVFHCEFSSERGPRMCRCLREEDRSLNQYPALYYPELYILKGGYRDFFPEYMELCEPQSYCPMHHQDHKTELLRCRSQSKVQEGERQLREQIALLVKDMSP

[7] = Inhibitory activity against Leukocyte antigen related Tyrosine Phosphatase (Receptor linked protein tyrosine phosphatase LAR) was determined
[8] = target: T3, M-phase inducer phosphatase 3; experiment: Inhibitory activity against Cell division cycle 25 degree C was determined

Compound | Ki [2] [µM] | Ki [3] [µM] | other results
Cc1cc(C)c2nc(C(=O)O)ccc2c1O |  |  | Kd [1]: 15600 µM
CCc1cc(CC(NC(C)=O)C(=O)NCCCCOc2cccc(O)c2C(=O)OC)ccc1N(C(=O)C(=O)O)c1ccccc1C(=O)O (stereo not drawn) | 0.065 |  | 
CCc1cc(CC(NC(C)=O)C(=O)NCCCCOc2cccc(O)c2[N+](=O)[O-])ccc1N(C(=O)C(=O)O)c1ccccc1C(=O)O (stereo not drawn) | 0.12 | 0.13 | 
CCc1cc(CC(NC(C)=O)C(=O)NCCCCOc2ccccc2C(=O)OC)ccc1N(C(=O)C(=O)O)c1ccccc1C(=O)O (stereo not drawn) | 0.86 | 1.6 | 
CCc1cc(CC(NC(C)=O)C(=O)NCCCCOc2cccc(O)c2C(=O)NC)ccc1N(C(=O)C(=O)O)c1ccccc1C(=O)O (stereo not drawn) | 0.83 | 0.37 | 
N#Cc1cc(C(=O)O)c(O)c(Br)c1N |  |  | Kd [1]: 910 µM
CCc1cc(CC(NC(C)=O)C(=O)NCCCCOc2cc(Cl)cc(O)c2C(=O)OC)ccc1N(C(=O)C(=O)O)c1ccccc1C(=O)O (stereo not drawn) | 0.23 | 0.04 | Ki [4]: > 3 µM; Ki [5]: > 3 µM; Ki [6]: > 3 µM; Ki [7]: > 3 µM
CCc1cc(CC(NC(C)=O)C(=O)NCCCCOc2cccc(O)c2C(=O)O)ccc1N(C(=O)C(=O)O)c1ccccc1C(=O)O (stereo not drawn) | 0.073 | 0.042 | 
C=CCOC(=O)N[C@@H](Cc1ccc(N(C(=O)C(=O)O)c2ccccc2C(=O)O)cc1)C(=O)NCCCCOc1cccc(O)c1C(=O)OC | 0.47 |  | Ki [4]: > 200 µM; Ki [5]: > 200 µM; Ki [8]: 178 µM; Ki [7]: 33 µM
NC(=O)[C@H](Cc1ccc(C(F)(F)P(=O)(O)O)cc1)NC(=O)[C@H](CC(=O)O)NC(=O)Cc1ccc(C(F)(F)P(=O)(O)O)cc1 | 0.024 |  | 
CCc1cc(CC(NC(C)=O)C(=O)NCCCCOc2ccc(-c3ccccc3)c(O)c2C(=O)OC)ccc1N(C(=O)C(=O)O)c1ccccc1C(=O)O (stereo not drawn) | 0.84 | 0.56 | 
CCc1cc(CC(NC(C)=O)C(=O)NCCCCOc2ccc(Br)c(O)c2C(=O)OC)ccc1N(C(=O)C(=O)O)c1ccccc1C(=O)O (stereo not drawn) | 2.6 | 0.39 | 
Nc1ccc(C(=O)O)c(O)c1 [AMINOSALICYLIC ACID] |  |  | Kd [1]: 1200 µM
